Read-outs that look alike come from different tables or passages of the source.
Assays:
[1] = test system: HepG2 (hepatocellular carcinoma); test: MTT cytotoxicity assay, HepG2; format: cell-based, human; settings: read-out: IC50 ± SD, HEPG-2
[2] = test system: normal human dermal/fibroblasts; test: MTT cytotoxicity assay, normal fibroblasts; format: cell-based; settings: 72 h, read-out: IC50 ± SD, Fibro dental
[3] = test system: PC3 (human prostate carcinoma); test: MTT cytotoxicity assay, PC3; format: cell-based; settings: 72 h, read-out: IC50 ± SD, PC-3
[4] = test system: MCF-7 (human breast adenocarcinoma); test: MTT cytotoxicity assay, MCF-7; format: cell-based; settings: read-out: IC50 ± SD, MCF7
[5] = test system: DU145 prostate cancer cells; test: MTT cytotoxicity assay, DU145; format: cell-based, human
[6] = test system: MDA-231 breast cancer cells; test: MTT cytotoxicity assay, MDA-231; format: cell-based, human
[7] = Homo sapiens, DU-145, read-out: IC50 ± SD, DU145
[8] = Homo sapiens, MDA-MB-231, read-out: IC50 ± SD, MDA-231

Cc1nc([N+](=O)[O-])c(N2CCN(Cc3cn(-c4ccc(Br)cc4)nn3)CC2)n1Cc1ccccc1 [Compound 11a, 1-(N1-benzyl-2-methyl-4-nitro-1H-imidazole-5-yl)-4-((N1-(4-bromophenyl)-1H-1,2,3-triazol-4-yl)methyl)piperazine]
IC50 ([1]; Homo sapiens, HepG2, 72 h): > 500 µM
IC50 ([2]; Homo sapiens, Fibroblast): > 500 µM
IC50 [3]: > 500 µM

Cc1cccc(-n2cc(CN3CCN(c4c([N+](=O)[O-])nc(C)n4Cc4ccccc4)CC3)nn2)c1 [Compound 11 m, 1-(N1-benzyl-2-methyl-4-nitro-1H-imidazole-5-yl)-4-((N1-(m-tolyl)-1H-1,2,3-triazol-4-yl)methyl)piperazine]
IC50 ([1]; Homo sapiens, HepG2, 72 h): > 500 µM
IC50 ([2]; Homo sapiens, Fibroblast): > 500 µM
IC50 ([4]; Homo sapiens, MCF7, 72 h): 161 ± 16 µM
IC50 [3]: > 500 µM

C#CCN1CCN(c2c([N+](=O)[O-])nc(C)n2Cc2ccccc2)CC1 [Compound 5, 1-(N1-benzyl-2-methyl-4-nitro-imidazole-5-yl)-4-(prop-2-yn-1-yl)piperazine]
IC50 ([2]; Homo sapiens, Fibroblast): > 500 µM
IC50 ([4]; Homo sapiens, MCF7, 72 h): 84 ± 2 µM

Cc1nc([N+](=O)[O-])c(N2CCN(Cc3cn(CC(=O)c4ccccc4)nn3)CC2)n1Cc1ccccc1 [Compound 10a, 2-(4-((4-(1-benzyl-2-methyl-4-nitro-1H-imidazole-5-yl)piperazin-1-yl)methyl)-1H-1,2,3-triazol-1-yl)-1-phenylethanone]
IC50 [5, 7]: 3.16 ± 0.03 µM
IC50 [6, 8]: 1.15 ± 0.5 µM
IC50 ([4]; Homo sapiens, MCF7, 72 h): 112 ± 30 µM

COc1cccc(C(=O)Cn2cc(CN3CCN(c4c([N+](=O)[O-])nc(C)n4Cc4ccccc4)CC3)nn2)c1 [Compound 10c, 2-(4-((4-(1-benzyl-2-methyl-4-nitro-1H-imidazole-5-yl)piperazin-1-yl)methyl)-1H-1,2,3-triazol-1-yl)-1-(3-methoxyphenyl)ethanone]
IC50 [5, 7]: 15 ± 1.6 µM
IC50 [6, 8]: 1.38 ± 1.3 µM
IC50 ([2]; Homo sapiens, Fibroblast): > 500 µM
IC50 ([4]; Homo sapiens, MCF7, 72 h): 585 ± 37 µM

Cc1nc([N+](=O)[O-])c(N2CCN(Cc3cn(-c4cccc(Cl)c4)nn3)CC2)n1Cc1ccccc1 [Compound 11n, 1-(N1-benzyl-2-methyl-4-nitro-1H-imidazole-5-yl)-4-((N1-(3-chlorophenyl)-1H-1,2,3-triazol-4-yl)methyl)piperazine]
IC50 ([2]; Homo sapiens, Fibroblast): > 500 µM
IC50 ([4]; Homo sapiens, MCF7, 72 h): 155 ± 70 µM

N.N.[Cl][Pt][Cl] [Cisplatin, reference compound]
IC50 ([5]; read-out: IC50 ± SD, DU145, Prostate cancer cells, MTT, mean ± SD): 8.5 ± 1.7 µM
IC50 ([1]; Liver cancer cells, MTT, 72 h, mean ± SD): 9.64 ± 1.7 µM
IC50 ([6]; read-out: IC50 ± SD, MDA-231, Breast cancer cells, MTT, mean ± SD): 16.2 ± 1.6 µM
IC50 ([2]; Normal cells, MTT, mean ± SD): > 100 µM
IC50 ([4]; Breast cancer cells, MTT, 72 h, mean ± SD): 14.6 ± 2.8 µM

Cc1nc([N+](=O)[O-])c(N2CCN(Cc3cn(-c4cccc5c4CCCC5)nn3)CC2)n1Cc1ccccc1 [Compound 11o, 1-(N1-benzyl-2-methyl-4-nitro-1H-imidazole-5-yl)-4-((N1-(5,6,7,8-tetrahydronaphthalen-1-yl)-1H-1,2,3-triazol-4-yl)methyl)piperazine]
IC50 ([2]; Homo sapiens, Fibroblast): > 500 µM
IC50 ([4]; Homo sapiens, MCF7, 72 h): 131 ± 30 µM
IC50 [3]: > 500 µM

Cc1nc([N+](=O)[O-])c(N2CCN(Cc3cn(Cc4ccc(Br)cc4)nn3)CC2)n1Cc1ccccc1 [Compound 9b, 1-(N1-benzyl-2-methyl-4-nitro-imidazole-5-yl)-4-((N1-(4-bromobenzyl)-1H-1,2,3-triazol-4-yl)methyl)piperazine]
IC50 ([2]; Homo sapiens, Fibroblast): > 500 µM
IC50 ([4]; Homo sapiens, MCF7, 72 h): 79 ± 21 µM

Cc1nc([N+](=O)[O-])c(N2CCN(Cc3cn(Cc4ccccc4Br)nn3)CC2)n1Cc1ccccc1 [Compound 9i, 1-(N1-benzyl-2-methyl-4-nitro-imidazole-5-yl)-4-((N1-(2-bromobenzyl)-1H-1,2,3-triazol-4-yl)methyl)piperazine]
IC50 ([1]; Homo sapiens, HepG2, 72 h): > 500 µM
IC50 ([2]; Homo sapiens, Fibroblast): > 500 µM
IC50 ([4]; Homo sapiens, MCF7, 72 h): 106 ± 12.3 µM
IC50 [3]: > 500 µM

COc1cccc2c1C(=O)c1c(O)c3c(c(O)c1C2=O)C[C@@](O)(C(=O)CO)C[C@@H]3O[C@H]1C[C@H](N)[C@H](O)[C@H](C)O1 [Doxorubicin, reference compound]
IC50 [5, 7]: 0.66 ± 0.04 µM
IC50 ([1]; Homo sapiens, HepG2, 72 h): 0.61 ± 0.05 µM
IC50 [6, 8]: 2.3 ± 1.3 µM
IC50 ([2]; Homo sapiens, Fibroblast): > 100 µM
IC50 ([4]; Homo sapiens, MCF7, 72 h): 0.64 ± 0.04 µM
IC50 [3]: 0.62 ± 0.06 µM

Cc1nc([N+](=O)[O-])c(N2CCN(Cc3cn(CC(=O)c4ccc(Br)cc4)nn3)CC2)n1Cc1ccccc1 [Compound 10b, 2-(4-((4-(1-benzyl-2-methyl-4-nitro-1H-imidazole-5-yl)piperazin-1-yl)methyl)-1H-1,2,3-triazol-1-yl)-1-(4-bromophenyl)ethanone]
IC50 [5, 7]: 8.95 ± 1.7 µM
IC50 [6, 8]: 1.33 ± 0.9 µM
IC50 ([4]; Homo sapiens, MCF7, 72 h): 372 ± 30 µM

Cc1nc([N+](=O)[O-])c(N2CCN(Cc3cn(-c4ccc(Cl)cc4)nn3)CC2)n1Cc1ccccc1 [Compound 11j, 1-(N1-benzyl-2-methyl-4-nitro-1H-imidazole-5-yl)-4-((N1-(4-chlorophenyl)-1H-1,2,3-triazol-4-yl)methyl)piperazine]
IC50 ([1]; Homo sapiens, HepG2, 72 h): > 500 µM
IC50 ([2]; Homo sapiens, Fibroblast): > 500 µM
IC50 ([4]; Homo sapiens, MCF7, 72 h): 279 ± 20 µM
IC50 [3]: > 500 µM

Cc1nc([N+](=O)[O-])c(Br)n1Cc1ccccc1 [Compound 3, 5-bromo-N1-benzyl-2-methyl-4-nitroimidazole]
IC50 ([1]; Homo sapiens, HepG2, 72 h): > 500 µM
IC50 ([2]; Homo sapiens, Fibroblast): > 500 µM
IC50 [3]: > 500 µM

Cc1nc([N+](=O)[O-])c(N2CCN(Cc3cn(-c4ccc5c(c4)OCO5)nn3)CC2)n1Cc1ccccc1 [Compound 11p, 1-((N1-(benzo[d] [1,3]dioxol-5-yl)-1H-1,2,3-triazol-4-yl)methyl)-4-(N1-benzyl-2-methyl-4-nitro-1H-imidazole-5-yl) piperazine]
IC50 [5, 7]: 0.803 ± 0.04 µM
IC50 [6, 8]: 11.7 ± 1.6 µM
IC50 ([4]; Homo sapiens, MCF7, 72 h): 52 ± 30 µM

Cc1nc([N+](=O)[O-])c(N2CCN(Cc3cn(Cc4ccccc4F)nn3)CC2)n1Cc1ccccc1 [Compound 9j, 1-(N1-benzyl-2-methyl-4-nitro-imidazole-5-yl)-4-((N1-(2-fluorobenzyl)-1H-1,2,3-triazol-4-yl)methyl)piperazine]
IC50 ([1]; Homo sapiens, HepG2, 72 h): > 500 µM
IC50 ([2]; Homo sapiens, Fibroblast): > 500 µM
IC50 ([4]; Homo sapiens, MCF7, 72 h): 151 ± 20 µM
IC50 [3]: > 500 µM

Cc1nc([N+](=O)[O-])c(N2CCN(Cc3cn(Cc4ccc(F)cc4)nn3)CC2)n1Cc1ccccc1 [Compound 9c, 1-(N1-benzyl-2-methyl-4-nitro-imidazole-5-yl)-4-((N1-(4-fluorobenzyl)-1H-1,2,3-triazol-4-yl)methyl)piperazine]
IC50 ([1]; Homo sapiens, HepG2, 72 h): > 500 µM
IC50 ([2]; Homo sapiens, Fibroblast): > 500 µM
IC50 ([4]; Homo sapiens, MCF7, 72 h): 24 ± 1.9 µM
IC50 [3]: > 500 µM

Cc1nc([N+](=O)[O-])c(N2CCN(Cc3cn(Cc4ccccc4)nn3)CC2)n1Cc1ccccc1 [Compound 9a, 1-((N1-benzyl-1H-1,2,3-triazol-4-yl)methyl)-4-(N1-benzyl-2-methyl-4-nitro-imidazole-5-yl)piperazine]
IC50 ([2]; Homo sapiens, Fibroblast): > 500 µM
IC50 ([4]; Homo sapiens, MCF7, 72 h): 55 ± 40 µM

Cc1nc([N+](=O)[O-])c(N2CCN(Cc3cn(-c4ccccc4[N+](=O)[O-])nn3)CC2)n1Cc1ccccc1 [Compound 11i, 1-(N1-benzyl-2-methyl-4-nitro-1H-imidazole-5-yl)-4-((N1-(2-nitrophenyl)-1H-1,2,3-triazol-4-yl)methyl)piperazine]
IC50 ([2]; Homo sapiens, Fibroblast): > 500 µM
IC50 ([4]; Homo sapiens, MCF7, 72 h): 185 ± 33 µM

COc1ccc(-n2cc(CN3CCN(c4c([N+](=O)[O-])nc(C)n4Cc4ccccc4)CC3)nn2)cc1 [Compound 11f, 1-(N1-benzyl-2-methyl-4-nitro-1H-imidazole-5-yl)-4-((N1-(4-methoxyphenyl)-1H-1,2,3-triazol-4-yl)methyl)piperazine]
IC50 ([2]; Homo sapiens, Fibroblast): > 500 µM
IC50 ([4]; Homo sapiens, MCF7, 72 h): 251 ± 71 µM

Cc1cccc(Cn2cc(CN3CCN(c4c([N+](=O)[O-])nc(C)n4Cc4ccccc4)CC3)nn2)c1 [Compound 9e, 1-(N1-benzyl-2-methyl-4-nitro-imidazole-5-yl)-4-((N1-(3-methylbenzyl)-1H-1,2,3-triazol-4-yl)methyl)piperazine]
IC50 ([1]; Homo sapiens, HepG2, 72 h): > 500 µM
IC50 ([2]; Homo sapiens, Fibroblast): > 500 µM
IC50 ([4]; Homo sapiens, MCF7, 72 h): 79 ± 21 µM
IC50 [3]: > 500 µM
